Results reported in ChEMBL document CHEMBL3259630, “Interkingdom pharmacology of Angiotensin-I converting enzyme inhibitor phosphonates produced by actinomycetes” (ACS Med Chem Lett, 2014).

How the values were obtained:
[1] = biological target: T1, Angiotensin-converting enzyme (Oryctolagus cuniculus, UniProt P12822); test: Inhibition of rabbit lung somatic ACE using FAPGG substrate
T1 sequence (P12822 whole entry): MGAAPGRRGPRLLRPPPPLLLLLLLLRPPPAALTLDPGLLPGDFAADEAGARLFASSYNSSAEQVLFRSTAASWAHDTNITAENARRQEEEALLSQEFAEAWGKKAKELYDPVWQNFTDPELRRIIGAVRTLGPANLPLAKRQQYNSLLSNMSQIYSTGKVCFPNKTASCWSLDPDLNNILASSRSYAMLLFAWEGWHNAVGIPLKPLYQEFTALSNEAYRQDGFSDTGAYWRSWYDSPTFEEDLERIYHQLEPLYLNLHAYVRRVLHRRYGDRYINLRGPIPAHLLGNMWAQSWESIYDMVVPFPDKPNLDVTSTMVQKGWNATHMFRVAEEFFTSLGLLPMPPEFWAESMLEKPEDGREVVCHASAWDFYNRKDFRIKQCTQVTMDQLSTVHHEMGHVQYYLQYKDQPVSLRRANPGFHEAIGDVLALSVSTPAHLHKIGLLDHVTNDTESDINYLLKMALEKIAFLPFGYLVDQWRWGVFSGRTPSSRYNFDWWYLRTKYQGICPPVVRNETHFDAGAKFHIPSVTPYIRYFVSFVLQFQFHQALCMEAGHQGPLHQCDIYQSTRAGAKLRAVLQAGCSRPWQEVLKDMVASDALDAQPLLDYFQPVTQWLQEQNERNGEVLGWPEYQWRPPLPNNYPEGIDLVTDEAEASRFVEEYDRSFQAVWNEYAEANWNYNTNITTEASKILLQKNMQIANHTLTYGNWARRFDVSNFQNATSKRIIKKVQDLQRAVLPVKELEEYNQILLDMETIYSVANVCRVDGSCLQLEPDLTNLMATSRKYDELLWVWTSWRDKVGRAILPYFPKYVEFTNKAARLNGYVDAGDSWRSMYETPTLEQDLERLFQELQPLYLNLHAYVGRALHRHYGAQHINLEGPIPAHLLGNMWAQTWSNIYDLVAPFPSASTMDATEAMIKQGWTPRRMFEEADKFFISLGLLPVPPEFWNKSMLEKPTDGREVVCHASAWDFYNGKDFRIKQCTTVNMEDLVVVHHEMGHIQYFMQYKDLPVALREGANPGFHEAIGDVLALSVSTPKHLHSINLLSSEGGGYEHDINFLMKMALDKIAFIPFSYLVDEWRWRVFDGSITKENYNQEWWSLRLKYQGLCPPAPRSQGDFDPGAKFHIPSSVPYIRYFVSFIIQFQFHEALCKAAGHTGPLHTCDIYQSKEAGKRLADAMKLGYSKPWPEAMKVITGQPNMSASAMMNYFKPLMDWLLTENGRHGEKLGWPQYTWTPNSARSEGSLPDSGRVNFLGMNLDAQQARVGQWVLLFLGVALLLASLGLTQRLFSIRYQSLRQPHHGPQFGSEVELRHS

[2] = biological target: T2, Angiotensin-converting enzyme (Homo sapiens, UniProt P12821); test: Inhibition of human ACE C-terminal domain using Cbz-Phe-His-Leu-OH substrate
T2 sequence (P12821 whole entry, the tested form may be a part): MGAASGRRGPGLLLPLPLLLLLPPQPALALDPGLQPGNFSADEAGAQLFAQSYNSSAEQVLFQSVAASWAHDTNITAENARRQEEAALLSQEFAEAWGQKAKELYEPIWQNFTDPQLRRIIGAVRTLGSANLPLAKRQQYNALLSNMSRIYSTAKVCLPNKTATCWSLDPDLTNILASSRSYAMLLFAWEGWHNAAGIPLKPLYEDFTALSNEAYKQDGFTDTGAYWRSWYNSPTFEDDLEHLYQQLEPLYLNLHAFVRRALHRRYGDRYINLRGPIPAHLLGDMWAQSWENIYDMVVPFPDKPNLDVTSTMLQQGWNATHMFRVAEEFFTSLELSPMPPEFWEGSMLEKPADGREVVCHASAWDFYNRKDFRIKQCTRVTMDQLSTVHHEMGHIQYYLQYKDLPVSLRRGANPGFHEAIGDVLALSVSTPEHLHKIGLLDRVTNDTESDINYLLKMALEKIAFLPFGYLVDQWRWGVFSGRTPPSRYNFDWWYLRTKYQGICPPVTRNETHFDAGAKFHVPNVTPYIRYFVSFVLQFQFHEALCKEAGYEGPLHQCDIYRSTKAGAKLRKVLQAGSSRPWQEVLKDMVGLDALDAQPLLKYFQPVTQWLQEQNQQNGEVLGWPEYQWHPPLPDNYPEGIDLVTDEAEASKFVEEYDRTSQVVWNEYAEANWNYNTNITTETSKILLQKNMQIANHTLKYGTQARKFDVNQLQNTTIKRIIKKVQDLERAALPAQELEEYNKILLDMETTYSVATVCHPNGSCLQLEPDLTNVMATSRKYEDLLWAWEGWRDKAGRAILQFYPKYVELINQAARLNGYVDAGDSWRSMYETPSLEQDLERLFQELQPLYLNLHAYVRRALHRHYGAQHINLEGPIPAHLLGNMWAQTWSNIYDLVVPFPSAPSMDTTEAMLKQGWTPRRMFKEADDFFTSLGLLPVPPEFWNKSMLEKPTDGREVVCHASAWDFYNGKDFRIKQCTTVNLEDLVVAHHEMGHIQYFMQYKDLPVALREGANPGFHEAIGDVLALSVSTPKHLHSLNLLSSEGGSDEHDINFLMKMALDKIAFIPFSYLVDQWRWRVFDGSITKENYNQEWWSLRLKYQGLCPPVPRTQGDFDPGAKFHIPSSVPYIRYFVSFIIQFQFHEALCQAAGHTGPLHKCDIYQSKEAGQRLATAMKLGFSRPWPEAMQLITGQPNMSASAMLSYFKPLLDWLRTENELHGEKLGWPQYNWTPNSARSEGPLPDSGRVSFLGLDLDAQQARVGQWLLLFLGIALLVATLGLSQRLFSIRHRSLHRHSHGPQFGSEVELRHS

[3] = biological target: T2, Angiotensin-converting enzyme; test: Inhibition of human ACE N-terminal domain using Cbz-Phe-His-Leu-OH substrate
[4] = Inhibition of Astrosporangium hypotensionis dicarboxypeptidase assessed as FAPGG substrate hydrolysis
[5] = biological target: T3, Dipeptidyl carboxypeptidase (Escherichia coli (strain K12), UniProt P24171); test: Inhibition of Escherichia coli dipeptidyl carboxypeptidase assessed as FAPGG substrate hydrolysis
T3 sequence (P24171 whole entry): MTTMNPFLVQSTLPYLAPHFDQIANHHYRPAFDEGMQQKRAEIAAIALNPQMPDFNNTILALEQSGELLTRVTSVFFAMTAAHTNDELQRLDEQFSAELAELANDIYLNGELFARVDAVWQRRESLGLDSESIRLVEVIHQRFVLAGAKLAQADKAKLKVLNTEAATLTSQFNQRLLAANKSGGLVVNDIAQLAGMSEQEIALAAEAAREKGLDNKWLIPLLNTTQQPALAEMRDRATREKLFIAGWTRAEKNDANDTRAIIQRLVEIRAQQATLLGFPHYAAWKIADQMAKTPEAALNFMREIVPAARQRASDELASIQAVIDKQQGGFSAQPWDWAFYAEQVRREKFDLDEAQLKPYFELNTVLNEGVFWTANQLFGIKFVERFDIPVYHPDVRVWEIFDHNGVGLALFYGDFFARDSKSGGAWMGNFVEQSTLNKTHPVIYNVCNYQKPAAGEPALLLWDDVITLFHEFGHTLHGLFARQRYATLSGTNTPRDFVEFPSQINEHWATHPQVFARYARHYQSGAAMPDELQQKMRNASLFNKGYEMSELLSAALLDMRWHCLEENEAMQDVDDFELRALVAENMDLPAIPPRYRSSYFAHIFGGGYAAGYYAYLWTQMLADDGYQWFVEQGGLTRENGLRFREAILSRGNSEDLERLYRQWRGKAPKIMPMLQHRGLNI

[6] = Inhibition of Schwanella oneidensis dipeptidyl carboxypeptidase assessed as FAPGG substrate hydrolysis
[7] = biological target: T2, Angiotensin-converting enzyme; test: Inhibition of ACE (unknown origin)

Row | SMILES | IC50 [1] | IC50 [2] | IC50 [3] | other results
1 | CC[C@H](C)[C@H](NC(C)=O)C(=O)N[C@@H](CCC(=O)O)C(=O)N[C@@H](Cc1ccc(O)cc1)P(=O)(O)O | 5200 nM | – | – | –
2 | CN[C@H](C(=O)N[C@@H](Cc1ccccc1)C(=O)N[C@@H](Cc1ccc(O)cc1)P(=O)(O)O)C(C)C | 370 nM | 590 nM | 220 nM | –
3 | CC[C@H](C)[C@H](NC(C)=O)C(=O)N[C@@H](CC(C)C)C(=O)N[C@@H](Cc1ccc(O)cc1)P(=O)(O)O | 100 nM | 12 nM | 76 nM | Ki [2]: 21 nM; Ki [3]: 33 nM
4 | CC[C@H](C)[C@H](NC(C)=O)C(=O)N[C@@H](Cc1ccc(O)cc1)C(=O)N[C@@H](Cc1ccc(O)cc1)P(=O)(O)O | 25 nM | 11 nM | 110 nM | IC50 [4]: 40000 nM; IC50 [5]: 150000 nM; IC50 [6]: 11000 nM; Ki [2]: 11 nM; Ki [3]: 75 nM
5 | N[C@@H](Cc1ccc(O)cc1)P(=O)(O)O | – | – | – | IC50 [7]: > 1000 nM
6 | CC[C@H](C)[C@H](NC(C)=O)C(=O)N[C@@H](Cc1ccccc1)C(=O)N[C@@H](Cc1ccc(O)cc1)P(=O)(O)O | 35 nM | – | – | –
7 | CN[C@H](C(=O)N[C@@H](Cc1ccc(O)cc1)C(=O)N[C@@H](Cc1ccc(O)cc1)P(=O)(O)O)C(C)C | 140 nM | 54 nM | 52 nM | –
